Patent publication US6709840B1, “Anergy associated genes” (The Board of Trustees of the Leland Stanford Junior …, priority 2000, dated 2004)

B1: IL-2: murine rIL-2 (Genzyme), 5 Units/ml during restimulation (protein, UniProt P04351 21-169, looked up)
Interleukin-2: APTSSSTSSSTAEAQQQQQQQQQQQQHLEQLLMDLQELLSRMENYRNLKLPRMLTFKFYLPKQATELKDLQCLEDELGPLRHVLDLTQSKSFQLEDAENFISNIRVTVVKLKGSDNTFECQFDDESATVVDFLRRWIAFCQSIISTSPQ

Legend:
Assay type in all cases: cell-based, murine
[1] = tested on: IL-2 mRNA in 11.3.7 T cells; assay: Real-time quantitative PCR of IL-2 message; conditions: 4 hours ionomycin vs PMA and ionomycin (100%)
Experimental: (§1) “Real-time” Quantitative PCR. Total RNA was isolated as described above and 0.5 μg was reversed transcribed using the TaqMan reverse transcription reagent kit (PE Applied Biosystems) according to recommended protocols. Subsequently, 1 μl aliquots of cDNA (equivalent to 5 ng of input RNA) were amplified in separate reactions with primer pairs and fluorescent probe sets specific for GAPDH (to generate a standard curve to control for input cDNA amounts) and for target mRNAs identified in the differential display screen. Resting, activated and anergic RNA samples were also amplified using specific primers and a probe for IL-2. Standard cycling conditions and PCR protocols were used for the ABI PRISM 7700 Sequence Detection System (PE Applied Biosystems). […]
(§2) Using the relative standard curve method described in protocols provided by ABI, changes in target RNA expression for the different ddPCR cDNA clones and IL-2 were calculated as fold increases over resting cells. To control for input RNA amounts, the relative amount of GAPDH RNA was determined for each sample (resting, anergic, and activated) from a standard curve generated for GAPDH. […] Standard curves for both target genes and GAPDH were determined by quantitative PCR reactions using serial dilutions of known amounts of cDNA or plasmids containing relevant inserts.

[2] = tested on: A9.5.7-4 (cbl-b) mRNA in 11.3.7 T cells; assay: Real-time quantitative PCR of ddPCR clone A9.5.7-4
Experimental: as §1, §2

[3] = tested on: 9.3.1-2 (MRC-OX44) mRNA in 11.3.7 T cells; assay: Real-time quantitative PCR of ddPCR clone 9.3.1-2
Experimental: as §1, §2

11.3.7 T cells = assay: Anergy assay: proliferation on restimulation (3H-Thymidine)
Experimental: Anergy Assays. Resting 11.3.7 T cells were purified on a Lympholyte M (Cedarlane Labs) gradient and washed three times with 1×PBS. Costimulatory incompetent APCs, (B7 negative RT 7.7 fibroblasts), were irradiated at 3000 rads prior to use in antigen-induced anergy cultures. 6×10^6 T cells were mixed with 6×10^6 B7 negative RT7.7 APCs in 20 mls of culture media. […] For ionomycin-induced anergy, 2×10^6 11.3.7 T cells were incubated with 1.5 μM ionomycin (Calbiochem). For full activation, 1 μg/ml PMA was added to the cultures.
At selected time intervals, aliquots of both cultures were harvested, pelleted, and washed twice before adding 10 μl of anti-CD4 microbeads (Millenyl Biotech) to separate CD4+ T cells from the RT 7.7 fibroblast APCs, according to the manufacturer's protocol. As determined by flow cytometry, greater than 95% purity was routinely achieved. To test for the anergic phenotype, 50×10^4 T cells/well were then cultured with irradiated DBA/2 splenocytes and various concentrations of peptide in a 96 well plate. In selected cultures, murine rIL-2 (Genzyme) was added at 5 Units/ml during the restimulation period, to test the viability of the anergized T cells. After 48 hours of culture, the cells were pulsed for 18 hours with 3H-Thymidine, then harvested and counted.

[4] = tested on: 6.5.2-4 (lymphotactin) mRNA in 11.3.7 T cells; assay: Real-time quantitative PCR of ddPCR clone 6.5.2-4
Experimental: as §1, §2

[5] = tested on: 19.9.6-3 (Nurr2) mRNA in 11.3.7 T cells; assay: Real-time quantitative PCR of ddPCR clone 19.9.6-3
Experimental: as §1, §2

[6] = tested on: 1-4 (GRAIL) mRNA in 11.3.7 T cells; assay: Real-time quantitative PCR of ddPCR clone 1-4
Experimental: as §1, §2

[7] = fold over resting T cells (1.0), GAPDH normalized
[8] = ionomycin-induced anergy (ion vs PMA/ion)

Molecule	IL-2 mRNA level relative to activated cells [1]	A9.5.7-4 mRNA expression, Anergic + ion [2, 7]	A9.5.7-4 anergic:activated ratio [2, 8]	9.3.1-2 mRNA expression, Anergic + ion [3, 7]	9.3.1-2 anergic:activated ratio [3, 8]	ionomycin-induced anergy (11.3.7 T cells; 1.5 μM ionomycin, 6 hours incubation)	induction of functional unresponsiveness (11.3.7 T cells; 1.5 μM ionomycin, one hour incubation)	6.5.2-4 mRNA expression, Anergic + ion [4, 7]	6.5.2-4 anergic:activated ratio [4, 8]	19.9.6-3 mRNA expression, Anergic + ion [5, 7]	19.9.6-3 anergic:activated ratio [5, 8]	1-4 mRNA expression, Anergic + ion [6, 7]	1-4 anergic:activated ratio [6, 8]	proliferative response of anergized T cells with IL-2 added (11.3.7 T cells; antigen-induced anergy, rIL-2 5 Units/ml during restimulation)	unresponsiveness with IL-2 added to restimulation cultures (11.3.7 T cells; ionomycin-induced anergy, rIL-2 5 Units/ml during restimulation)
C[C@H](CCC(=O)O)C[C@H](C)C[C@H](C)C(=O)/C=C(\O)[C@H](C)C[C@H](C)C/C=C/[C@@H](C)[C@@H](O)[C@@H](C)[C@@H](O)C[C@@H]1CC[C@@](C)([C@H]2CC[C@@](C)([C@@H](C)O)O2)O1 [Ionomycin, ionomycin]	≤ 0.5%	11.0 fold	1.4 fold	10.2 fold	0.71 fold	complete	did not induce a state of functional unresponsiveness	153 fold	0.84 fold	21.7 fold	1.1 fold	4.0 fold	3.3 fold		
B1														induced as strong a proliferative response in the anergized T cells as it did in the resting, control T cells	overcome
